Calls of active or inactive are those of the source. The rule behind the calls is not given here.
What was measured:
[1] = target: T1, DNA topoisomerase I (Bos taurus) (UniProt F1MN93); assay: Inhibition of calf thymus DNA topoisomerase 1 assessed as reduction in enzyme-mediated relaxation of supercoiled pBR322 plasmid DNA at 10 uM after 30 mins by agarose gel electrophoresis
T1 sequence (whole entry): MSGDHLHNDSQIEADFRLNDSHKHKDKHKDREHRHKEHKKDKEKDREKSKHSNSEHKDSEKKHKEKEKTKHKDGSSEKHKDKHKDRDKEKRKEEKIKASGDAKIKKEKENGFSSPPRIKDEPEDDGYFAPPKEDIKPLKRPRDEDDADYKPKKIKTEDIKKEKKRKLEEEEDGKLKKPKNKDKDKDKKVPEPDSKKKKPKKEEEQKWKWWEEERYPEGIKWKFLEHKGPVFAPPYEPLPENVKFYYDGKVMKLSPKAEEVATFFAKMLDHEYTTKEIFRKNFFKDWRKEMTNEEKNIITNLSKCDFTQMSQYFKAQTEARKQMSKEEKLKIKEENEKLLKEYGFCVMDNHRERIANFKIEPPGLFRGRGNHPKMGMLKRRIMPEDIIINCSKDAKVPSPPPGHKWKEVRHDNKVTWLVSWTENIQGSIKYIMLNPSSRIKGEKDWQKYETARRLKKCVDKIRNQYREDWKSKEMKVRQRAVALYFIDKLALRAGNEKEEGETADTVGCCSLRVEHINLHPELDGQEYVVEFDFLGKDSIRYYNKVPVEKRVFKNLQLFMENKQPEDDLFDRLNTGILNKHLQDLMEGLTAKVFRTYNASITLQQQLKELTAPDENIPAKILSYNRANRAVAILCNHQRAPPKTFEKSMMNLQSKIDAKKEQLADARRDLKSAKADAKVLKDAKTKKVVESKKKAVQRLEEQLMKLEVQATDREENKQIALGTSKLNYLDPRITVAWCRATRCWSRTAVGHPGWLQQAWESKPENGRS

[2] = target: T1, DNA topoisomerase I (Bos taurus); assay: Inhibition of calf thymus DNA topoisomerase 1 assessed as reduction in enzyme-mediated relaxation of supercoiled pBR322 plasmid DNA at 10 uM after 30 mins by ethidium bromide staining-based agarose gel electrophoresis
[3] = Antiproliferative activity against human HBC4 cells after 48 hrs by SRB assay; type: functional; details: HBC4, 48 h
[4] = Antiproliferative activity against human BSY1 cells after 48 hrs by SRB assay; type: functional; details: BSY-1, 48 h
[5] = Antiproliferative activity against human HBC5 cells after 48 hrs by SRB assay; type: functional; details: HBC5, 48 h
MCF7 = assay: Antiproliferative activity against human MCF7 cells after 48 hrs by SRB assay; type: functional; details: MCF7, 48 h
MDA-MB-231 = assay: Antiproliferative activity against human MDA-MB-231 cells after 48 hrs by SRB assay; type: functional; details: MDA-MB-231, 48 h
U-251 = assay: Antiproliferative activity against human U251 cells after 48 hrs by SRB assay; type: functional; details: U-251, 48 h
SF-268 = assay: Antiproliferative activity against human SF268 cells after 48 hrs by SRB assay; type: functional; details: SF-268, 48 h
SF-295 = assay: Antiproliferative activity against human SF295 cells after 48 hrs by SRB assay; type: functional; details: SF-295, 48 h
SF-539 = assay: Antiproliferative activity against human SF539 cells after 48 hrs by SRB assay; type: functional; details: SF-539, 48 h
SNB-75 = assay: Antiproliferative activity against human SNB75 cells after 48 hrs by SRB assay; type: functional; details: SNB-75, 48 h
SNB-78 = assay: Antiproliferative activity against human SNB78 cells after 48 hrs by SRB assay; type: functional; details: SNB-78, 48 h
HCC 2998 = assay: Antiproliferative activity against human HCC2998 cells after 48 hrs by SRB assay; type: functional; details: HCC 2998, 48 h
KM12 = assay: Antiproliferative activity against human KM12 cells after 48 hrs by SRB assay; type: functional; details: KM12, 48 h
HT-29 = assay: Antiproliferative activity against human HT-29 cells after 48 hrs by SRB assay; type: functional; details: HT-29, 48 h
HCT-15 = assay: Antiproliferative activity against human HCT15 cells after 48 hrs by SRB assay; type: functional; details: HCT-15, 48 h
HCT-116 = assay: Antiproliferative activity against human HCT116 cells after 48 hrs by SRB assay; type: functional; details: HCT-116, 48 h
NCI-H23 = assay: Antiproliferative activity against human NCI-H23 cells after 48 hrs by SRB assay; type: functional; details: NCI-H23, 48 h
NCI-H226 = assay: Antiproliferative activity against human NCI-H226 cells after 48 hrs by SRB assay; type: functional; details: NCI-H226, 48 h
NCI-H522 = assay: Antiproliferative activity against human NCI-H522 cells after 48 hrs by SRB assay; type: functional; details: NCI-H522, 48 h
NCI-H460 = assay: Antiproliferative activity against human NCI-H460 cells after 48 hrs by SRB assay; type: functional; details: NCI-H460, 48 h
A549 = assay: Antiproliferative activity against human A549 cells after 48 hrs by SRB assay; type: functional; details: A549, 48 h
DMS-273 = assay: Antiproliferative activity against human DMS273 cells after 48 hrs by SRB assay; type: functional; details: DMS-273, 48 h
DMS-114 = assay: Antiproliferative activity against human DMS114 cells after 48 hrs by SRB assay; type: functional; details: DMS-114, 48 h
LOX IMVI = assay: Antiproliferative activity against human LOXIMVI cells after 48 hrs by SRB assay; type: functional
OVCAR-3 = assay: Antiproliferative activity against human OVCAR3 cells after 48 hrs by SRB assay; type: functional; details: OVCAR-3, 48 h
OVCAR-4 = assay: Antiproliferative activity against human OVCAR4 cells after 48 hrs by SRB assay; type: functional; details: OVCAR-4, 48 h
OVCAR-5 = assay: Antiproliferative activity against human OVCAR5 cells after 48 hrs by SRB assay; type: functional; details: OVCAR-5, 48 h
OVCAR-8 = assay: Antiproliferative activity against human OVCAR8 cells after 48 hrs by SRB assay; type: functional; details: OVCAR-8, 48 h
SK-OV-3 = assay: Antiproliferative activity against human SKOV3 cells after 48 hrs by SRB assay; type: functional; details: SK-OV-3, 48 h
RXF 631 = assay: Antiproliferative activity against human RXF631L cells after 48 hrs by SRB assay; type: functional; details: RXF 631, 48 h
ACHN = assay: Antiproliferative activity against human ACHN cells after 48 hrs by SRB assay; type: functional
St-4 = assay: Antiproliferative activity against human St-4 cells after 48 hrs by SRB assay; type: functional; details: St-4, 48 h
MKN-1 = assay: Antiproliferative activity against human MKN1 cells after 48 hrs by SRB assay; type: functional; details: MKN-1, 48 h
MKN-7 = assay: Antiproliferative activity against human MKN7 cells after 48 hrs by SRB assay; type: functional; details: MKN-7, 48 h
MKN-28 = assay: Antiproliferative activity against human MKN28 cells after 48 hrs by SRB assay; type: functional; details: MKN-28, 48 h
MKN-45 = assay: Antiproliferative activity against human MKN45 cells after 48 hrs by SRB assay; type: functional; details: MKN-45, 48 h
MKN-74 = assay: Antiproliferative activity against human MKN74 cells after 48 hrs by SRB assay; type: functional; details: MKN-74, 48 h
DU-145 = assay: Antiproliferative activity against human DU145 cells after 48 hrs by SRB assay; type: functional; details: DU-145, 48 h
PC-3 = assay: Antiproliferative activity against human PC3 cells after 48 hrs by SRB assay; type: functional; details: PC-3, 48 h

inhibition [1]: Active
inhibition [2]: Active
GI50 (MCF7; read-out: GI50): 9.6 nM
GI50 (MCF7; read-out: pGI50 (converted)): 9.55 nM
GI50 (MDA-MB-231): 115 nM
GI50 (U-251; read-out: GI50): 1.3 nM
GI50 (U-251; read-out: pGI50 (converted)): 1.32 nM
GI50 (HCC 2998): 39.8 nM
GI50 (HT-29): 3890 nM
GI50 (HCT-15): 162 nM
GI50 (HCT-116; read-out: GI50): 8.8 nM
GI50 (HCT-116; read-out: pGI50 (converted)): 8.91 nM
GI50 (NCI-H23): 4.57 nM
GI50 (NCI-H226): 89.1 nM
GI50 (NCI-H522; read-out: GI50): 1.8 nM
GI50 (NCI-H522; read-out: pGI50 (converted)): 1.82 nM
GI50 (NCI-H460): 2.14 nM
GI50 (A549): 4.17 nM
GI50 (OVCAR-3): 39.8 nM
GI50 (OVCAR-4): 26.9 nM
GI50 (OVCAR-5): 79.4 nM
GI50 (OVCAR-8): 20.4 nM
GI50 (SK-OV-3; read-out: GI50): 9.4 nM
GI50 (SK-OV-3; read-out: pGI50 (converted)): 9.33 nM
GI50 (ACHN; read-out: GI50): < 1 nM
GI50 (ACHN; read-out: pGI50 (converted)): 1 nM
GI50 (MKN-1): 37.1 nM
GI50 (MKN-7): 45.7 nM
GI50 (MKN-28; read-out: GI50): 33 nM
GI50 (MKN-28; read-out: pGI50 (converted)): 33.1 nM
GI50 (MKN-45): 32.4 nM
GI50 (MKN-74): 52.5 nM
GI50 (DU-145; read-out: GI50): 2.5 nM
GI50 (DU-145; read-out: pGI50 (converted)): 2.51 nM
GI50 (PC-3): 132 nM
Compound: COc1cc2c(ccc3c4c(=O)oc5cc(O)c(OC)cc5c4n(C)c23)cc1O
GI50 [3]: 13.5 nM
GI50 [4]: 33.9 nM
GI50 [5]: 95.5 nM
GI50 (SF-268): 2.19 nM
GI50 (SF-295): 4.57 nM
GI50 (SF-539): 2.82 nM
GI50 (SNB-75): 8.13 nM
GI50 (SNB-78): 200 nM
GI50 (KM12): 46.8 nM
GI50 (DMS-273): 2.04 nM
GI50 (DMS-114): 3.89 nM
GI50 (LOX IMVI; read-out: GI50): 2.6 nM
GI50 (LOX IMVI; read-out: pGI50 (converted)): 2.57 nM
GI50 (RXF 631): 4680 nM
GI50 (St-4): 10000 nM

From ChEMBL document CHEMBL4308908, “Lamellarin-inspired potent topoisomerase I inhibitors with the unprecedented benzo[g][1]benzopyrano[4,3-b]indol-6(13H)-one scaffold” (Bioorg Med Chem, 2019)
